Experimental findings from the supplement of paper PMC10307832 are described below.

What all share (test): relative viability (nuclei count vs DMSO), 5 days (fraction); higher = more cells survive
Compound in the experiment “Kobe2602 + Trametinib”: C1=CC(=CC=C1NC(=S)NNC2=C(C=C(C=C2[N+](=O)[O-])C(F)(F)F)[N+](=O)[O-])F [Kobe2602] + CC(=O)Nc1cccc(-n2c(=O)n(C3CC3)c(=O)c3c(Nc4ccc(I)cc4F)n(C)c(=O)c(C)c32)c1 [Trametinib] (partner 0.02 µM)
Put shortly: (§1)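 Five library-drug doses in √10 steps were combined with a fixed anchor-drug dose, or a single drug was given alone, by pin tool to lung cancer cell lines in 1536-well plates the day after seeding. Nuclei were stained and counted after 5 days. Relative viability is the nuclei count in treated wells over that in vehicle wells, taken as the median of duplicate plates.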

Compound in the experiment “Kobe2602 + Pictilisib”: C1=CC(=CC=C1NC(=S)NNC2=C(C=C(C=C2[N+](=O)[O-])C(F)(F)F)[N+](=O)[O-])F [Kobe2602] + CS(=O)(=O)N1CCN(Cc2cc3nc(-c4cccc5[nH]ncc45)nc(N4CCOCC4)c3s2)CC1 [Pictilisib] (partner 1 µM)
The method in brief: as §1

Compound in the experiment “Cabozantinib + Alpelisib”: COc1cc2nccc(Oc3ccc(NC(=O)C4(C(=O)Nc5ccc(F)cc5)CC4)cc3)c2cc1OC [Cabozantinib] + Cc1nc(NC(=O)N2CCC[C@H]2C(N)=O)sc1-c1ccnc(C(C)(C)C(F)(F)F)c1 [Alpelisib] (partner 2 µM)
Put shortly: as §1

Compound in the experiment “Zosuquidar + Phenformin”: O[C@@H](COc1cccc2ncccc12)CN1CCN([C@@H]2c3ccccc3[C@@H]3[C@H](c4ccccc42)C3(F)F)CC1 [Zosuquidar] + N=C(N)NC(=N)NCCc1ccccc1 [Phenformin] (partner 250 µM)
The method in brief: as §1

Turning to NCI-H1793, the relative viability with Kobe2602 + Trametinib (first compound 0.2 µM) turned out to be 0.437; in the experiment with Kobe2602 + Trametinib (first compound 0.6325 µM), 0.459; in the experiment with Kobe2602 + Trametinib (first compound 2 µM) it was 0.449; with Kobe2602 + Trametinib (first compound 6.325 µM), 0.394; with Kobe2602 + Trametinib (first compound 20 µM) it was 0.399; with Kobe2602 + Pictilisib (first compound 0.2 µM) it was 0.387. In addition, the relative viability with Kobe2602 + Pictilisib (first compound 0.6325 µM) came out at 0.381; in the experiment with Kobe2602 + Pictilisib (first compound 2 µM) it was 0.32; with Kobe2602 + Pictilisib (first compound 6.325 µM), 0.346; in the experiment with Kobe2602 + Pictilisib (first compound 20 µM), 0.339; in the experiment with Cabozantinib + Alpelisib (first compound 0.02 µM), 0.845; in the experiment with Cabozantinib + Alpelisib (first compound 0.06325 µM), 0.864. Moreover, the relative viability was 0.561 with Cabozantinib + Alpelisib (first compound 0.2 µM); 0.759 with Cabozantinib + Alpelisib (first compound 0.6325 µM); 0.637 with Cabozantinib + Alpelisib (first compound 2 µM); 0.387 in the experiment with Zosuquidar + Phenformin (first compound 0.01 µM); 0.346 in the experiment with Zosuquidar + Phenformin (first compound 0.03162 µM); 0.469 with Zosuquidar + Phenformin (first compound 0.3162 µM). The relative viability in the experiment with Zosuquidar + Phenformin (first compound 1 µM) stood at 0.359.
In the case of NCI-H1915, the relative viability was 0.291 with Kobe2602 + Trametinib (first compound 0.2 µM); 0.312 with Kobe2602 + Trametinib (first compound 0.6325 µM); 0.292 with Kobe2602 + Trametinib (first compound 2 µM); 0.312 in the experiment with Kobe2602 + Trametinib (first compound 6.325 µM); 0.346 in the experiment with Kobe2602 + Trametinib (first compound 20 µM); 0.959 with Kobe2602 + Pictilisib (first compound 0.2 µM). The relative viability came to 0.993 with Kobe2602 + Pictilisib (first compound 0.6325 µM); 0.994 with Kobe2602 + Pictilisib (first compound 2 µM); 0.989 with Kobe2602 + Pictilisib (first compound 6.325 µM); 1.02 with Kobe2602 + Pictilisib (first compound 20 µM); 1.1 with Cabozantinib + Alpelisib (first compound 0.02 µM); 1.08 with Cabozantinib + Alpelisib (first compound 0.06325 µM). For the same cell line, the relative viability with Cabozantinib + Alpelisib (first compound 0.2 µM) came to 1.03; in the experiment with Cabozantinib + Alpelisib (first compound 0.6325 µM), 1.08; in the experiment with Cabozantinib + Alpelisib (first compound 2 µM), 1.07; with Zosuquidar + Phenformin (first compound 0.01 µM), 0.377; with Zosuquidar + Phenformin (first compound 0.03162 µM), 0.386; with Zosuquidar + Phenformin (first compound 0.1 µM), 0.347. Moreover, the relative viability with Zosuquidar + Phenformin (first compound 0.3162 µM) is 0.38; with Zosuquidar + Phenformin (first compound 1 µM) it was 0.37.
Take NCI-H1944: the relative viability with Kobe2602 + Trametinib (first compound 0.2 µM) turned out to be 0.418; in the experiment with Kobe2602 + Trametinib (first compound 0.6325 µM), 0.409; with Kobe2602 + Trametinib (first compound 2 µM) it was 0.404; with Kobe2602 + Trametinib (first compound 6.325 µM), 0.442; in the experiment with Kobe2602 + Trametinib (first compound 20 µM), 0.423; with Kobe2602 + Pictilisib (first compound 0.2 µM), 0.344. For the same cell line, the relative viability in the experiment with Kobe2602 + Pictilisib (first compound 0.6325 µM) turned out to be 0.381; with Kobe2602 + Pictilisib (first compound 2 µM), 0.353; with Kobe2602 + Pictilisib (first compound 6.325 µM), 0.349; with Kobe2602 + Pictilisib (first compound 20 µM), 0.374; with Cabozantinib + Alpelisib (first compound 0.06325 µM), 0.848; with Cabozantinib + Alpelisib (first compound 0.2 µM) it was 0.78. For the same cell line, the relative viability in the experiment with Cabozantinib + Alpelisib (first compound 0.6325 µM) was found to be 0.75; with Cabozantinib + Alpelisib (first compound 2 µM), 0.778; with Zosuquidar + Phenformin (first compound 0.01 µM) it was 0.19; with Zosuquidar + Phenformin (first compound 0.03162 µM) it was 0.192; with Zosuquidar + Phenformin (first compound 0.1 µM), 0.196; with Zosuquidar + Phenformin (first compound 0.3162 µM), 0.225. Moreover, in the experiment with Zosuquidar + Phenformin (first compound 1 µM), the relative viability was found to be 0.196.
Consider NCI-H1975, for which the relative viability was found to be 0.332 in the experiment with Kobe2602 + Trametinib (first compound 0.2 µM); 0.333 in the experiment with Kobe2602 + Trametinib (first compound 0.6325 µM); 0.328 with Kobe2602 + Trametinib (first compound 2 µM); 0.29 in the experiment with Kobe2602 + Trametinib (first compound 6.325 µM); 0.352 in the experiment with Kobe2602 + Trametinib (first compound 20 µM); 0.279 in the experiment with Kobe2602 + Pictilisib (first compound 0.2 µM). The relative viability with Kobe2602 + Pictilisib (first compound 0.6325 µM) turned out to be 0.276; in the experiment with Kobe2602 + Pictilisib (first compound 2 µM), 0.277; with Kobe2602 + Pictilisib (first compound 6.325 µM) it was 0.256; with Kobe2602 + Pictilisib (first compound 20 µM), 0.299; with Cabozantinib + Alpelisib (first compound 0.02 µM), 0.675; with Cabozantinib + Alpelisib (first compound 0.06325 µM), 0.807. Also, the relative viability was 0.669 in the experiment with Cabozantinib + Alpelisib (first compound 0.2 µM); 0.604 with Cabozantinib + Alpelisib (first compound 0.6325 µM); 0.623 with Cabozantinib + Alpelisib (first compound 2 µM); 0.397 with Zosuquidar + Phenformin (first compound 0.01 µM); 0.378 with Zosuquidar + Phenformin (first compound 0.03162 µM); 0.417 with Zosuquidar + Phenformin (first compound 0.1 µM). Moreover, the relative viability with Zosuquidar + Phenformin (first compound 0.3162 µM) worked out at 0.42; in the experiment with Zosuquidar + Phenformin (first compound 1 µM), 0.399.
As to NCI-H1993, the relative viability with Kobe2602 + Trametinib (first compound 0.2 µM) worked out at 0.516; in the experiment with Kobe2602 + Trametinib (first compound 0.6325 µM), 0.489; in the experiment with Kobe2602 + Trametinib (first compound 2 µM), 0.429; with Kobe2602 + Trametinib (first compound 6.325 µM), 0.507; with Kobe2602 + Trametinib (first compound 20 µM), 0.476; with Kobe2602 + Pictilisib (first compound 0.2 µM), 0.649. Moreover, the relative viability is 0.807 in the experiment with Kobe2602 + Pictilisib (first compound 0.6325 µM); 0.861 with Kobe2602 + Pictilisib (first compound 2 µM); 0.893 with Kobe2602 + Pictilisib (first compound 6.325 µM); 0.785 with Kobe2602 + Pictilisib (first compound 20 µM); 0.71 with Cabozantinib + Alpelisib (first compound 0.02 µM); 0.719 with Cabozantinib + Alpelisib (first compound 0.06325 µM). The relative viability with Cabozantinib + Alpelisib (first compound 0.2 µM) stood at 0.662; with Cabozantinib + Alpelisib (first compound 0.6325 µM), 0.713; with Cabozantinib + Alpelisib (first compound 2 µM) it was 0.798; with Zosuquidar + Phenformin (first compound 0.01 µM), 0.422; in the experiment with Zosuquidar + Phenformin (first compound 0.03162 µM), 0.596; in the experiment with Zosuquidar + Phenformin (first compound 0.1 µM) it was 0.438. For the same cell line, the figures for the relative viability with Zosuquidar + Phenformin (first compound 0.3162 µM) and with Zosuquidar + Phenformin (first compound 1 µM) were 0.476 and 0.533, respectively.
For NCI-H2009, the relative viability with Kobe2602 + Trametinib (first compound 0.2 µM) turned out to be 0.297; in the experiment with Kobe2602 + Trametinib (first compound 0.6325 µM), 0.373; in the experiment with Kobe2602 + Trametinib (first compound 2 µM), 0.332; with Kobe2602 + Trametinib (first compound 6.325 µM), 0.305; in the experiment with Kobe2602 + Trametinib (first compound 20 µM), 0.274; in the experiment with Kobe2602 + Pictilisib (first compound 0.2 µM), 0.843. Besides, the relative viability with Kobe2602 + Pictilisib (first compound 0.6325 µM) came to 0.877; with Kobe2602 + Pictilisib (first compound 2 µM), 0.874; with Kobe2602 + Pictilisib (first compound 6.325 µM), 0.876; in the experiment with Kobe2602 + Pictilisib (first compound 20 µM), 0.897; with Cabozantinib + Alpelisib (first compound 0.02 µM), 1.25; in the experiment with Cabozantinib + Alpelisib (first compound 0.06325 µM), 1.21. Also, the relative viability is 1.16 with Cabozantinib + Alpelisib (first compound 0.2 µM); 1.14 in the experiment with Cabozantinib + Alpelisib (first compound 0.6325 µM); 1.21 in the experiment with Cabozantinib + Alpelisib (first compound 2 µM); 0.503 in the experiment with Zosuquidar + Phenformin (first compound 0.01 µM); 0.47 with Zosuquidar + Phenformin (first compound 0.03162 µM); 0.481 in the experiment with Zosuquidar + Phenformin (first compound 0.1 µM). In addition, the results for the relative viability in the experiment with Zosuquidar + Phenformin (first compound 0.3162 µM) and with Zosuquidar + Phenformin (first compound 1 µM) were 0.518 and 0.498, respectively.
Take NCI-H2023: the relative viability with Kobe2602 + Trametinib (first compound 0.2 µM) came to 0.469; with Kobe2602 + Trametinib (first compound 0.6325 µM), 0.608; with Kobe2602 + Trametinib (first compound 2 µM), 0.592; with Kobe2602 + Trametinib (first compound 6.325 µM), 0.444; in the experiment with Kobe2602 + Trametinib (first compound 20 µM), 0.201; with Kobe2602 + Pictilisib (first compound 0.2 µM), 0.259. Further, the relative viability with Kobe2602 + Pictilisib (first compound 0.6325 µM) was found to be 0.269; with Kobe2602 + Pictilisib (first compound 2 µM), 0.223; in the experiment with Kobe2602 + Pictilisib (first compound 6.325 µM), 0.215; with Kobe2602 + Pictilisib (first compound 20 µM) it was 0.228; with Cabozantinib + Alpelisib (first compound 0.02 µM), 0.613; with Cabozantinib + Alpelisib (first compound 0.06325 µM), 0.591. Moreover, the relative viability came to 0.559 with Cabozantinib + Alpelisib (first compound 0.2 µM); 0.514 with Cabozantinib + Alpelisib (first compound 0.6325 µM); 0.335 with Cabozantinib + Alpelisib (first compound 2 µM); 0.387 with Zosuquidar + Phenformin (first compound 0.01 µM); 0.426 with Zosuquidar + Phenformin (first compound 0.03162 µM); 0.385 in the experiment with Zosuquidar + Phenformin (first compound 0.1 µM). The relative viability is 0.408 with Zosuquidar + Phenformin (first compound 0.3162 µM) and 0.396 in the experiment with Zosuquidar + Phenformin (first compound 1 µM).
